ChEMBL document CHEMBL1156131, “Discovery of pyrazol-3-ylamino pyrazines as novel JAK2 inhibitors” (Bioorg Med Chem Lett, 2009)
pIC50: −log10 of the molar value.

Assays:
[1] = molecular target: T1, Tyrosine-protein kinase JAK2 (Homo sapiens, UniProt O60674); test: Inhibition of JAK2 using 5 mM ATP as a substrate
[2] = molecular target: T1, Tyrosine-protein kinase JAK2; test: Inhibition of JAK2 using 2 mM ATP as a substrate
[3] = molecular target: T2, Tyrosine-protein kinase JAK3 (Homo sapiens, UniProt P52333); test: Inhibition of JAK3 using 5 mM ATP as a substrate
T2 sequence (P52333 whole entry): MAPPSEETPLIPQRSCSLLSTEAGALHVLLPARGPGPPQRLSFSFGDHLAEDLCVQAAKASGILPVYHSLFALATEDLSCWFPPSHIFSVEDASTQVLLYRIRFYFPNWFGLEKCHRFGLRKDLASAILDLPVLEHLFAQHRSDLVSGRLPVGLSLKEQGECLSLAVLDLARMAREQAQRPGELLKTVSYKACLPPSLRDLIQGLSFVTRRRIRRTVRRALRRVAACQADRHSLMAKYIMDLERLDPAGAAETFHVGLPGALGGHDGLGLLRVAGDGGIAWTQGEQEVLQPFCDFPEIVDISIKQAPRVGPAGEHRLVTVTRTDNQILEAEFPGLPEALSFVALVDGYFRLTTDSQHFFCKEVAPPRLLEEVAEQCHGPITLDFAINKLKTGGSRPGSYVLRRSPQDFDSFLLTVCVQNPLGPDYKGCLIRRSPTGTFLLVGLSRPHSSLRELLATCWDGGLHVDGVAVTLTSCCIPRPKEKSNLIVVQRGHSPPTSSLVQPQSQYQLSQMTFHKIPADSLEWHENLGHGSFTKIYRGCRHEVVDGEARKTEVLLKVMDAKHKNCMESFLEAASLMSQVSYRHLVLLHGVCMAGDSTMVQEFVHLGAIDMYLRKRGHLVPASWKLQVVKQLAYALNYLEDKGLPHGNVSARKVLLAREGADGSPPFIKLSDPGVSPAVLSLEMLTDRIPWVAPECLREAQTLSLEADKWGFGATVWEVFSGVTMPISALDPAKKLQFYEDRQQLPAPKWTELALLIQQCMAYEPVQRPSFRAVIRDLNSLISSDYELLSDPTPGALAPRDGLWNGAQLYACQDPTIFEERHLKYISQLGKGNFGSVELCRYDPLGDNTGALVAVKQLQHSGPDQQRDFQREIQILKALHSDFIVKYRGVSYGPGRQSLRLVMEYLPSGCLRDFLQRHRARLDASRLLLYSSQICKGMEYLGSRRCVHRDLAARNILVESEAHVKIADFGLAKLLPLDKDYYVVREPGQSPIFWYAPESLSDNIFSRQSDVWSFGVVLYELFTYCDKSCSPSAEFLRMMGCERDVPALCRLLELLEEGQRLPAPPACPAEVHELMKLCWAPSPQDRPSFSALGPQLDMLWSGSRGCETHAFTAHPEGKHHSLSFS

[4] = molecular target: Cyclin-dependent kinase 2 (Homo sapiens, UniProt P24941); test: Inhibition of CDK2
[5] = molecular target: T1, Tyrosine-protein kinase JAK2; test: Inhibition of Tel-fused JAK2
Mus musculus [6] = test: Ex vivo inhibition of STAT5 phosphorylation in NCr mouse implanted with Tel-fused JAK expressing mouse BAF3 cells at 10 mg/kg, po after 2 hrs; type: functional; conditions: BaF3, 2 h
Aurora kinase B = Aurora kinase B (Homo sapiens, UniProt Q96GD4); test: Inhibition of Aurora B
Sequence of Aurora kinase B (Q96GD4 whole entry, the tested form may be a part): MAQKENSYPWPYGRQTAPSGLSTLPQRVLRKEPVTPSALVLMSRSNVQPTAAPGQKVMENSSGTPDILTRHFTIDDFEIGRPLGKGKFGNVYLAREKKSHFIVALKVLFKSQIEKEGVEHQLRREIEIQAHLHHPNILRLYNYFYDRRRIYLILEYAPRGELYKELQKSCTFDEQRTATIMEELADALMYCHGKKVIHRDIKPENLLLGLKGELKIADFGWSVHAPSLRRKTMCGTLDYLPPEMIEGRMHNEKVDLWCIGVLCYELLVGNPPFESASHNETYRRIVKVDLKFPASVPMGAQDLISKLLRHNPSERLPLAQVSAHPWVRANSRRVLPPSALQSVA

Mus musculus [7] = test: Ex vivo inhibition of STAT5 phosphorylation in NCr mouse implanted with Tel-fused JAK expressing mouse BAF3 cells at 25 mg/kg, po after 4 hrs; type: functional; conditions: BaF3, 4 h
Mus musculus [8] = test: Ex vivo inhibition of STAT5 phosphorylation in NCr mouse implanted with Tel-fused JAK expressing mouse BAF3 cells at 5 mg/kg, po after 2 hrs; type: functional; conditions: BaF3, 2 h
[9] = Half life Wistar rat at 10 mg/kg, po and 3 mg/kg, iv; type: ADME, organism-based; conditions: in vivo
[10] = Volume of distribution at steady state in Wistar rat at 10 mg/kg, po and 3 mg/kg, iv; type: ADME, organism-based; conditions: in vivo, read-out: Vdss
Mus musculus [11] = test: Ex vivo inhibition of STAT5 phosphorylation in NCr mouse implanted with Tel-fused JAK expressing mouse BAF3 cells at 25 mg/kg, po after 2 hrs; type: functional; conditions: BaF3, 2 h
[12] = Clearance in Wistar rat at 10 mg/kg, po and 3 mg/kg, iv; type: ADME, organism-based; conditions: in vivo
[13] = molecular target: High affinity nerve growth factor receptor (Homo sapiens, UniProt P04629); test: Inhibition of TRKA
Sequence of High affinity nerve growth factor receptor (P04629 whole entry, the tested form may be a part): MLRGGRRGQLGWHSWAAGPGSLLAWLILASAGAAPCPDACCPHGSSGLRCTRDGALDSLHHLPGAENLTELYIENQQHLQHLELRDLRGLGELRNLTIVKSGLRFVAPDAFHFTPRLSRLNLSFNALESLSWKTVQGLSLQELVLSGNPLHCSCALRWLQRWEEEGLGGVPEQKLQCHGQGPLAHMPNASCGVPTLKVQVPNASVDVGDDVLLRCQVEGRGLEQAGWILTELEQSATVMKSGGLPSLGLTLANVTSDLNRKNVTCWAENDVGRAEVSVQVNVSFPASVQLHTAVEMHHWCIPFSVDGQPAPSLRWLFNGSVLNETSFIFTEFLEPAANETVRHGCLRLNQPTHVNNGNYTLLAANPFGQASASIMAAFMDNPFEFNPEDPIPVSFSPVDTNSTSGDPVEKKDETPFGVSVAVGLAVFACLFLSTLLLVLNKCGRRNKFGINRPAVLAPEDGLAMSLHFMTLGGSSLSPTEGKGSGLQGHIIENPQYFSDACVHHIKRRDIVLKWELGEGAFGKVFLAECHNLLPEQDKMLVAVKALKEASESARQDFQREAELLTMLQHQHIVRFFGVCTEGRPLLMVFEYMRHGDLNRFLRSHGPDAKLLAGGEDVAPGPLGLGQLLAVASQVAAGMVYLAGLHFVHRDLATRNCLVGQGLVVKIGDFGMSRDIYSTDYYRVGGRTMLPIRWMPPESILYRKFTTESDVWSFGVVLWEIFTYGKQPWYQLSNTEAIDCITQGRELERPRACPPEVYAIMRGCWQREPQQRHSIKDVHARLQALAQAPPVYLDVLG

[14] = molecular target: T3, Tyrosine-protein kinase JAK3 (Homo sapiens) (UniProt P52333); test: Inhibition of Tel-fused JAK3
T3 sequence (whole entry): T2 sequence (P52333 whole entry)

[15] = Half life Beagle dog at 10 mg/kg, po and 3 mg/kg, iv; type: ADME, organism-based, Canis lupus familiaris; conditions: in vivo
[16] = Volume of distribution at steady state in Beagle dog at 10 mg/kg, po and 3 mg/kg, iv; type: ADME, organism-based, Canis lupus familiaris; conditions: in vivo, read-out: Vdss
[17] = Clearance in Beagle dog at 10 mg/kg, po and 3 mg/kg, iv; type: ADME, organism-based, Canis lupus familiaris; conditions: in vivo

T1 sequence (O60674 whole entry): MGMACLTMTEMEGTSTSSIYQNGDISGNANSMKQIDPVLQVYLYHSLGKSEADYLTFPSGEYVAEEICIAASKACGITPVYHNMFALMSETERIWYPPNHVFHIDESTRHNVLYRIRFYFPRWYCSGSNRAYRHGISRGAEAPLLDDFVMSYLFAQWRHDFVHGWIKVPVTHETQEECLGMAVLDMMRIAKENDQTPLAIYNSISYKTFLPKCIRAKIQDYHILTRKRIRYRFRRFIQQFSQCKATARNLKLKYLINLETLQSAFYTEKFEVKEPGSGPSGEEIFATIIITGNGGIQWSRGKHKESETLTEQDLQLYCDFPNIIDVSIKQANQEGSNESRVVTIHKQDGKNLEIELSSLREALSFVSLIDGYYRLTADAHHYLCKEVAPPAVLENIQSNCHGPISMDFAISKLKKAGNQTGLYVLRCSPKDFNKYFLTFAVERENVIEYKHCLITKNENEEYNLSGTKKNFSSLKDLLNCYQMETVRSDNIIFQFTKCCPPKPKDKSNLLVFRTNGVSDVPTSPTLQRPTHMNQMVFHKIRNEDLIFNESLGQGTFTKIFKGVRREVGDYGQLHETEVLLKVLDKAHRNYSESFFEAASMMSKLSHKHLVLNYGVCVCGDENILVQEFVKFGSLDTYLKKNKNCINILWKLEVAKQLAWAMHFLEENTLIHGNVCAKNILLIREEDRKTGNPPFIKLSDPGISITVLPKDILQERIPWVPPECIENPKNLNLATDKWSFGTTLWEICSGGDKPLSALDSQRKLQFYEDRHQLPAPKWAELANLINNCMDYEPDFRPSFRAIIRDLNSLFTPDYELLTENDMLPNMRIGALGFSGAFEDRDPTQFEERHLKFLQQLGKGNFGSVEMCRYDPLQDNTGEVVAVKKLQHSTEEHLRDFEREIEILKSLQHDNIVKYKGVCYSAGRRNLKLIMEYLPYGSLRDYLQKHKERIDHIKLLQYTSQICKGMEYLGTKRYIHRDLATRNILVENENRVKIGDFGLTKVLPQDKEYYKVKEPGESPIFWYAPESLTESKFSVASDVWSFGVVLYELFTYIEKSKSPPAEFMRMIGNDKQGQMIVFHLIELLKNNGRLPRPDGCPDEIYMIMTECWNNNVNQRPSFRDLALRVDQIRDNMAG

| SMILES | pIC50 [1] | pIC50 [2] | pIC50 [3] | further results |
| --- | --- | --- | --- | --- |
| Cc1cc(Nc2cnc(C#N)c(NC(C)c3ccc(F)cn3)n2)n[nH]1 (stereo unspecified) | 8.30 | > 8.52 | 4.89 |  |
| Cc1cc(Nc2nc(NC(C)c3ccc(F)cn3)c(C#N)nc2C)n[nH]1 (stereo unspecified) | 7.33 | > 8.52 |  |  |
| Cc1cc(Nc2nc(O[C@H](C)c3ccc(F)cn3)c(C#N)nc2C)[nH]n1 | 5.33 | 6.97 | < 4.52 |  |
| Cc1cc(Nc2cncc(N[C@@H](C)c3ccc(F)cn3)n2)[nH]n1 | 8.52 | > 8.52 | 4.93 |  |
| C[C@H](Nc1nc(Nc2cc(C3CC3)n[nH]2)cnc1C#N)c1ccc(F)cn1 | 7.60 | > 8.52 | 4.57 |  |
| Cc1cc(Nc2nc(N[C@@H](C)c3ccc(F)cn3)cnc2C)[nH]n1 | 7.74 | > 8.52 |  |  |
| Cc1cc(Nc2nc(O[C@@H](C)c3ccc(F)cn3)c(C#N)nc2C)[nH]n1 | 6.85 | 8.40 | < 4.52 |  |
| CC(C)Oc1cc(Nc2cncc(N[C@@H](C)c3ccc(F)cn3)n2)[nH]n1 | 6.38 | 8.00 |  |  |
| COc1cc(Nc2cncc(N[C@@H](C)c3ccc(F)cn3)n2)[nH]n1 | 8.10 | 8.52 |  |  |
| Cc1cc(Nc2nc(N[C@H](C)c3ncc(F)cn3)c(C#N)nc2C)[nH]n1 | 4.98 | 7.30 | < 4.52 |  |
| Cc1cc(Nc2nc(N[C@H](C)c3ccc(F)cn3)c(C#N)nc2C)n[nH]1 | 6.04 | 7.12 |  |  |
| Cc1cc(Nc2cncc(N[C@@H](C)c3ncc(F)cn3)n2)n[nH]1 | 8.52 | > 8.52 | 4.86 |  |
| Cc1cc(Nc2nc(N[C@@H](C)c3ccc(F)cn3)c(C#N)nc2C)n[nH]1 | 7.96 | > 8.52 |  | pIC50 [4]: 6.34; GI50 [5]: 110 nM |
| Cc1cc(Nc2cnc(C#N)c(N[C@@H](C)c3ccc(F)cn3)n2)n[nH]1 | 8.52 | > 8.52 | 5.29 | pIC50 [4]: 7.52; inhibition in vivo at 10 mg/kg (Mus musculus [6]): > 90%; pIC50 (Aurora kinase B): 6.17; inhibition in vivo at 25 mg/kg (Mus musculus [7]): > 90%; GI50 [5]: 60 nM; inhibition in vivo at 5 mg/kg (Mus musculus [8]): > 80%; half-life [9]: 1.2 h; Vd [10]: 2.2 L/kg; inhibition in vivo at 25 mg/kg (Mus musculus [11]): > 90%; clearance [12]: 25 mL/min/kg; pIC50 [13]: 6.17; GI50 [14]: 1100 nM |
| Cc1cc(Nc2cnc(C#N)c(N[C@@H](C)c3ncc(F)cn3)n2)n[nH]1 | 8.22 | > 8.52 |  | pIC50 [4]: 7.30; GI50 [5]: 160 nM |
| Cc1cc(Nc2nc(N[C@@H](C)c3ncc(F)cn3)c(C#N)nc2C)n[nH]1 | 7.06 | > 8.52 | 4.58 | pIC50 [4]: 6.39; inhibition in vivo at 10 mg/kg (Mus musculus [6]): > 90%; pIC50 (Aurora kinase B): 6.07; GI50 [5]: 220 nM; inhibition in vivo at 5 mg/kg (Mus musculus [8]): > 80%; half-life [9]: 1.6 h; Vd [10]: 1.6 L/kg; half-life [15]: 7 h; Vd [16]: 1.1 L/kg; inhibition in vivo at 25 mg/kg (Mus musculus [11]): > 95%; clearance [12]: 13 mL/min/kg; pIC50 [13]: 5.83; clearance [17]: < 2 mL/min/kg; GI50 [14]: 7400 nM |
